Measured values: EPA's ToxValDB 9.5
Where “and” joins values, the source holds several entries; their conditions need not be identical. Equal values may be shown once. Blank lines part the entries; values can stand above or below the compound they belong to.

Key:
Oryctolagus sp. [1] = experiment: LD40; higher = less toxic; details: acute; dermal; occlusive; New Zealand
Rattus norvegicus [2] = details: oral
Oryctolagus sp. [3] = details: acute
Rattus norvegicus [4] = details: subchronic, oral
Sus scrofa [5] = details: subchronic; duration: 90 days; oral; diet; M/F; Not specified; Urinary, Hepatic
Ovis sp. = details: uterotrophic; duration: 14 days; injection; Active
Rattus norvegicus [6] = details: uterotrophic, Active
Mus musculus [7] = details: uterotrophic, Active
Oryctolagus sp. [8] = details: uterotrophic; duration: 12 days; oral; Active
Sus scrofa [9] = details: reproduction developmental; duration: 15 days; oral; diet; F; Not specified; Increased inter-estrus interval, concentrations of progesterone and prolonged maintenance of corpora lutea
Rattus norvegicus [10] = details: developmental; oral; drinking water; M/F; reduced pup body weight
Mus musculus [11] = details: developmental; inhalation; M/F; developmental toxicity (skeletal variations)
Homo sapiens [12] = details: clinical; duration: 6 hours; inhalation; M/F; neurological
Rattus norvegicus [13] = details: repeat dose other; oral
Rattus norvegicus [14] = details: developmental; oral; drinking water; Fetus: Decreased birth weight
Mus musculus [15] = details: developmental; duration: 10 days; inhalation; intermittent; Fetus: Decreased birth weight
Rattus norvegicus [16] = experiment: LD5; higher = less toxic; details: developmental; oral; drinking water; M/F; reduced pup body weight
Cavia porcellus [17] = details: acute; oral; Guinea Pig
Mus musculus [18] = system: Mus musculus
Mus musculus [19] = experiment: LD100; higher = less toxic; details: acute
Canidae [20] = experiment: LD0; higher = less toxic; details: acute; injection; intravenous; Dog Other
Rattus norvegicus [21] = experiment: LD0; higher = less toxic; details: acute; injection; subcutaneous
Oryctolagus sp. [22] = experiment: LD0; higher = less toxic; details: acute; dermal
Cavia porcellus [23] = experiment: LD0; higher = less toxic; details: acute; injection; subcutaneous; Guinea Pig
Homo sapiens [24] = details: clinical; duration: 16 days; oral; M/F; plasma cholinesterase inhibition
Canidae [25] = details: subchronic; duration: 13 weeks; oral; diet; F; Beagle
[26] = gavage, M, Sprague-Dawley, Clinical Observation: Salivation (transient) + Functional Observational Battery: Salivation Spontaneous motor activity (total ambulatory …
[27] = duration: 1 days, injection, subcutaneous
[28] = subchronic, duration: 13 weeks, diet, Fischer 344
[29] = subchronic, duration: 13 weeks, oral, diet, B6C3F1

SMILES: Cc1ccncc1 [4-Methylpyridine]
LD40 (Oryctolagus sp. [1]): ≥ 200 mg/kg and ≤ 316 mg/kg
LD50 (Rattus norvegicus [2]; acute, gavage, Sprague-Dawley): 841 mg/kg and 700 mg/kg
LD50 (Oryctolagus sp. [3]; dermal, occlusive, New Zealand): ≥ 126 mg/kg and ≤ 200 mg/kg
LOEL (Rattus norvegicus [4]; [26]): 20 mg/kg-day
NOEL (Rattus norvegicus [4]; [26]): 5 mg/kg-day

SMILES: CCOCCOCCO [2-(2-Ethoxyethoxy)ethanol]
NOAEL (Sus scrofa [5]): 167 mg/kg-day
NOAEL (Rattus norvegicus [4]; duration: 60 days, gavage, M, CD(BR), Deaths + Clinical Observation: Bloody urine LethargyProstration PiloerectionUnkempt hair coat Blood around the mouth and nose + Body Weight …): 1340 mg/kg-day
NOAEL (Rattus norvegicus [4]; duration: 90 days, diet, M/F, CFE, Body Weight Changes: Terminal body weight decrease% + Food Consumption: decrease% + Urinalysis: Oxalate crystals increase% + Hematology: …): 0.5%

LEL (Ovis sp.): 0.001 mg/day
LEL (Rattus norvegicus [6]; duration: 0.125 days, injection, subcutaneous): 0.001 mg/day
LEL (Rattus norvegicus [6]; duration: 0.25 days, injection, subcutaneous): 0.001 mg/day
LEL (Rattus norvegicus [6]; duration: 1 days, dermal): 3 mg/L
LEL (Rattus norvegicus [6]; duration: 1 days, injection, intraperitoneal): 0.001 mg
LEL (% (w/w)) (Rattus norvegicus [6]; duration: 2 days, implant): 40
LEL (pellets) (Rattus norvegicus [6]; duration: 2 days, implant): 4
LEL (Rattus norvegicus [6]; duration: 2 days, injection, subcutaneous): 0.01 mg/day
LEL (Rattus norvegicus [6]; duration: 3 days, oral): 0.09 mg/kg-day
LEL (rat units) (Rattus norvegicus [6]; duration: 5 days): 1
LEL (Mus musculus [7]; duration: 0.17 days, injection, subcutaneous): 2.88e-07 mg
LEL (Mus musculus [7]; [27]): 0.0761 mg/kg-day
LEL (gamma) (Mus musculus [7]; duration: 3 days, injection, subcutaneous): 0.04
LEL (Mus musculus [7]; duration: 3 days, oral): 0.93 mg/kg-day
SMILES: C[C@]12CC[C@@H]3c4ccc(O)cc4CC[C@H]3[C@@H]1C[C@@H](O)[C@@H]2O [Estriol]

SMILES: C[C@H]1CCCC(=O)CCC/C=C/c2cc(O)cc(O)c2C(=O)O1 [Zearalenone]
LEL (Rattus norvegicus [6]; duration: 3 days, oral): 0.18 mg/day
LEL (Rattus norvegicus [6]; duration: 3 days, oral, diet): 1 mg/kg-day
LEL (Rattus norvegicus [6]; duration: 8 days, oral): 1 mg/kg-day
LEL (Oryctolagus sp. [8]): 1 mg/kg-day
LEL (Mus musculus [7]; [27]): 5 mg/kg-day
LEL (Mus musculus [7]; duration: 7 days, oral): 1 mg/kg-day
LEL (Mus musculus [7]; oral): 2 mg/kg-day
LOEL (Sus scrofa [9]): 0.2 mg/kg-day
NOEL (Sus scrofa [9]): 0.04 mg/kg-day
NOEL (Rattus norvegicus [4]; duration: 13 weeks, diet, M/F, Fischer 344, Body Weight Changes: decrease + Histopathology: Seminal vesicle-Atrophy Bone-Osteopetrosis Pituitary-Hyperplasia Mammary gland-Ductular …): < 2.88 mg/kg-day

SMILES: CCC(C)=O [Methyl ethyl ketone]
LOAEL (Rattus norvegicus [10]): 1770 mg/kg-day
NOAEL (Rattus norvegicus [10]): 594 mg/kg-day
LEC (Mus musculus [11]): 5200 mg/m3
LOAEL (Homo sapiens [12]): 292 mg/m3
LOAEL (Rattus norvegicus [13]): 4570 mg/kg-day
NOAEL (Rattus norvegicus [13]): 1770 mg/kg-day
NOAEL (Rattus norvegicus [14]): 1710 mg/kg-day
NOAEL (Mus musculus [15]): 2980 mg/m3
LD5 (Rattus norvegicus [16]): 639 mg/kg-day

SMILES: NC(=Nc1ccccc1)Nc1ccccc1 [1,3-Diphenylguanidine]
NOAEL (Rattus norvegicus [2]; developmental, duration: 10 days, gavage, Sprague-Dawley): 25 mg/kg-day
NOAEL (Rattus norvegicus [2]; reproduction developmental, duration: 13 weeks, diet, Fischer 344, generation: F0): 750 ppm
NOAEL (Rattus norvegicus [2]; reproduction developmental, duration: 10 days, gavage, F, Sprague-Dawley): 5 mg/kg-day and 10 mg/kg-day
LOAEL (Rattus norvegicus [2]; short-term, duration: 14 days, diet, Sprague-Dawley): 300 ppm
NOAEL (Rattus norvegicus [2]; short-term, duration: 28 days, diet): 100 ppm
LOAEL (Rattus norvegicus [2]; [28]): 72 mg/kg-day
NOAEL (Rattus norvegicus [2]; [28]): 48 mg/kg-day
NOAEL (Rattus norvegicus [2]; subchronic, duration: 90 days, diet, Sprague-Dawley): 14.4 mg/kg-day
LD50 (Oryctolagus sp. [3]; oral): 250 mg/kg and 246 mg/kg
LD50 (Cavia porcellus [17]): 250 mg/kg
LD50 (Mus musculus [18]; acute, injection, Intraperitoneal): 75 mg/kg and ≥ 25 mg/kg and ≤ 50 mg/kg
NOAEL (Mus musculus [18]; developmental, duration: 19 days, oral, gavage, ICR): ≥ 10 mg/kg-day
NOAEL (Mus musculus [18]; reproduction developmental, duration: 8 weeks, oral, gavage, CD1, generation: F0): ≥ 16 mg/kg-day
NOAEL (Mus musculus [18]; reproduction developmental, duration: 19 days, oral, gavage, F, ICR): 4 mg/kg-day
LOAEL (Mus musculus [18]; [29]): 148 mg/kg-day
NOAEL (Mus musculus [18]; [29]): 98.5 mg/kg-day
LD100 (Mus musculus [19]; injection, subcutaneous): 50 mg/kg
LD100 (Mus musculus [19]; oral): 450 mg/kg
LD0 (Canidae [20]): 25 mg/kg
LD0 (Rattus norvegicus [21]): 50 mg/kg
LD0 (Oryctolagus sp. [22]): > 2000 mg/kg
LD0 (Cavia porcellus [23]): 200 mg/kg
NOEL (Rattus norvegicus [4]; diet, F, Fischer 344, Deaths + Clinical Observation: Ruffled fur Emacation Pale skin + Body Weight Changes: decrease + Food Consumption: decrease + Hematology: …): < 17 mg/kg-day
NOEL (Rattus norvegicus [4]; diet, M/F, Fischer 344, Deaths + Clinical Observation: Ruffled fur Emacation Pale skin + Body Weight Changes: decrease + Food Consumption: decrease + Hematology: …): < 24 mg/kg-day

SMILES: O=P(O)(O)CCCl [Ethephon]
LEL (Homo sapiens [24]): 0.5 mg/kg-day

SMILES: c1ccc2c(c1)Nc1ccccc1S2 [Phenothiazine]
NOAEL (Canidae [25]): 1.59 mg/kg-day
